Measurements: patent publication US20110281812A1, “Compounds” (priority 2009, published 2011)
Like-named read-outs stand apart in the source and are kept apart here.

Assays:
Male BALB/c mice = assay: Cigarette-smoke-induced lung neutrophilia; type: in vivo; conditions: oral gavage; for reduction of neutrophil number in BALF, statistical significance: p<0.05 vs vehicle control
Protocol: Male BALB/c mice (weighing 21-24 g, were randomly grouped, 5 animals per group) were pre-treated with compound (100, 30, 10, 3 and 1 mg/kg body weight) or vehicle (5% DMSO/95% methyl-cellulose 0.5% w/v, positive control) by oral gavage in a volume of 10 mL/kg. 2 hours after compound administration, 10 mice were placed into a plexiglass box (Braintree Scientific, size 10″×4″×4″) with an input port for aerosol and another port for exhaust. Cigarette smoke was introduced through the aerosol port via a peristaltic pump (Masterflex L/S, Digital Economy Drive) set at 40 ml/min. Breathing air was also introduced through the same port via an elbow in the tubing at a rate of 0.4 L/min. With these settings, smoke concentration delivered to the box was approximately 10%. 3 cigarettes (research type 4A1, University of Kentucky Tobacco Institute) were given back-to-back with a 1 min period between each one, when the mice breathed fresh air for one minute. 2 to 3 hours after the first group of cigarettes, 2 additional cigarettes were given, again allowing 1 min between each cigarette. After the last cigarette, the mice were returned to their normal housing. This procedure was carried out for 2 days.
On the 3rd day, mice were euthanized with 0.1 ml Fatal Plus i.p., then bronchoalveolar lavaged with 5×0.7 ml Dulbecco's phosphate-buffered saline (dPBS, in-house Media Prep lab) through a tracheal tube. BALF was spun at 3000 rpm for 10 min, the supernatant discarded, and the cells resuspended with 1 ml dPBS. Slides were made on a cytospin (100 μl fluid, spun at 300 rpm for 5 min), then stained with Diff Quick for differential counts (minimum of 200 cells counted). Total cell counts were performed with a hemocytometer after a dilution with Tuerks solution.
Results are expressed as percentage decrease in number of neutrophils in BALF of treated animals compared to positive control (vehicle treated and smoke challenged animals).

[1] = test system: IL-6 production in LPS-stimulated murine spleenocytes; assay: Inhibition of IL-6 production in LPS-stimulated murine spleenocytes in vitro; type: cell-based; conditions: Mus musculus, 50 μM concentration of the compound, read-out: inhibition of interleukin-6 (IL-6) production
Protocol: Test and reference substances used in an in vitro assays were dissolved in dimethyl sulfoxide (DMSO) (Sigma Chemical Co., USA) at a concentration of 50 mM and were further diluted to test concentrations in appropriate cell culture medium.
After cervical dislocation, mouse spleens were removed using sterile dissection tools. Spleens were transferred to a pre-wetted cell strainer in a 50 mL sterile conical tube and cell suspension was made by gentle puddle. Cells were centrifuged (20 min, 300×g) and resuspended in 2 mL of sterile phosphate buffered saline (PBS) (Sigma Chemical Co., USA). Red blood cells were lysed by addition of 3 mL of sterile water and occasionally gentle shaking for 1 minute. Afterwards, the tube was filled to 40 mL with DMEM medium and centrifuged (20 min, 300×g). Cells were resuspended in DMEM supplemented with 1% FBS and seeded in a 24-well plate, 1×10^6 cells per mL medium.
Final concentrations of 50 μM, 25 μM, 12.5 μM, 6.3 μM and 3.1 μM of test compounds were prepared by diluting a 50 mM DMSO stock in Dulbecco's modified Eagle medium (DMEM) (Gibco, USA) supplemented with 1% heat inactivated fetal bovine serum (FBS) (BioWest, Ringmer, United Kingdom).
Cells were pre-incubated with the test compounds for 3 h at 37° C., in an atmosphere of 5% CO2 and 90% humidity. Afterwards, cells were stimulated with 1 μg/mL lipopolysaccharide (LPS, E. coli 0111:B4, Sigma Chemical Co., USA) and incubated overnight. Concentration of IL-6 was determined in cell supernatants by sandwich ELISA using capture and detection antibodies (R&D Systems, USA) according to the manufacturer's recommendations.
Inhibition (as percentage) was calculated using the following formula:
% inhibition=[1−(concentration of IL-6 in sample−concentration of IL-6 in negative control)/(concentration of IL-6 in positive control−concentration of IL-6 in negative control)]×100.
The positive control refers to LPS-stimulated samples that were not preincubated with the compounds.
The negative control refers to unstimulated and untreated samples.

male BALB/cJ mice = assay: Lung neutrophilia induced by bacterial lipopolysaccharide in male BALB/cJ mice - Method B; type: in vivo; conditions: Mus musculus, ip, 24 h, single dose of 100 mg/kg i.p., vs LPS challenged untreated animals
Protocol: For intraperitoneal administration (i.p.) compounds were dissolved in a final concentration of 10 mg/mL. The required amount of compound was first dissolved in dimethylsulfoxide (DMSO, Sigma) and then diluted with 0.5% (w/v) methyl-cellulose so that the final DMSO concentration was 5% (v/v). The obtained solution was applied in a dose volume of 0.1 mL per 10 g of animal. Therefore, the compound dose was 100 mg/kg.
Male BALB/cJ mice (Charles River, Germany), with an average weight of ˜25 g were randomly grouped (n=8 in testing group, 10 in positive control and 6-8 in negative control). Mice received intraperitoneally (i.p.) a single dose of 100 mg/kg of test compound. Two hours after administration, 0.4 μg of LPS (from Escherichia coli serotype 0111:B4, Sigma), dissolved in sterile saline (0.9% NaCl) in a volume of 50 μL, was intranasally administered to all experimental groups except the negative control group, which received the same volume of vehicle (saline). Animals were sacrificed approximately 24 hours after application of LPS in order to obtain bronchoalveolar lavage fluid (BALF), which was used to determine absolute number of cells and the percentage of neutrophils. […] In some experiments neutrophil levels in BALF were assessed by measurement of concentration of a neutrophil-specific enzyme myeloperoxidase (MPO). Results are then expressed as percentage of decrease in myeloperoxidase (MPO) concentration measured in BALF lysates of treated animals compared to positive control (Mouse MPO ELISA Kit, Hycult biotechnology, Nederlands). For this purpose, BALF was sonicated after addition of 1.5% Triton-X-100 (Pharmacia Biotech) in Milli-Q water and frozen at −80° C. until analysed.

[2] = Neutrophil, read-out: inhibition of number of neutrophils or decrease in myeloperoxidase concentration in BALF
[3] = read-out: inhibition of total cell number in BALF

Structure (SMILES) | reduction of neutrophil number in BALF, statistical significance (Male BALB/c mice; dose of 100 mg/kg) | inhibition of neutrophil number in BALF (Male BALB/c mice; dose of 100 mg/kg, vs vehicle treated smoke challenged animals) | inhibition at 50 µM [1] | reduction of neutrophil number in BALF, statistical significance (Male BALB/c mice; dose of 30 mg/kg) | inhibition in vivo at 100 mg/kg (male BALB/cJ mice; [2]) | inhibition in vivo at 100 mg/kg (male BALB/cJ mice; [3])
CCC(=O)NCCCO[C@H]1[C@H](O[C@@H]2[C@@H](C)[C@H](O[C@H]3C[C@@](C)(OC)[C@@H](O)[C@H](C)O3)[C@@H](C)C(=O)O[C@H](CC)[C@@](C)(O)[C@H](O)[C@@H](C)N(C)C[C@H](C)C[C@@]2(C)O)O[C@H](C)C[C@@H]1N(C)C [Example 2, 2′-O-[3-(Propanoylamino)propyl]-9-deoxo-9a-methyl-9a-aza-9a-homoerythromycin A] | no statistical significance | less than 10% | > 40% | – | – | –
CC[C@H]1OC(=O)[C@H](C)[C@@H](O[C@H]2C[C@@](C)(OC)[C@@H](O)[C@H](C)O2)[C@H](C)[C@@H](O[C@@H]2O[C@H](C)C[C@H](N(C)C)[C@H]2OCCCNC(=O)COC)[C@](C)(O)C[C@@H](C)CN(C)[C@H](C)[C@@H](O)[C@]1(C)O [Example 16, 2′-O-{3-[(Methoxyacetyl)amino]propyl}-9-deoxo-9a-methyl-9a-aza-9a-homoerythromycin A] | – | – | > 40% | statistically significantly reduced | > 50% | > 50%
CC[C@H]1OC(=O)[C@H](C)[C@@H](O[C@H]2C[C@@](C)(OC)[C@@H](O)[C@H](C)O2)[C@H](C)[C@@H](O[C@@H]2O[C@H](C)C[C@H](N(C)C)[C@H]2OCCCNC(=O)c2cccnc2)[C@](C)(O)C[C@@H](C)CN(C)[C@H](C)[C@@H](O)[C@]1(C)O [Example 20, 2′-O-{3-[(3-Pyridinylcarbonyl)amino]propyl}-9-deoxo-9a-methyl-9a-aza-9a-homoerythromycin A] | – | – | > 40% | – | > 30% | > 30%
CCOCC(=O)NCCCO[C@H]1[C@H](O[C@@H]2[C@@H](C)[C@H](O[C@H]3C[C@@](C)(OC)[C@@H](O)[C@H](C)O3)[C@@H](C)C(=O)O[C@H](CC)[C@@](C)(O)[C@H](O)[C@@H](C)N(C)C[C@H](C)C[C@@]2(C)O)O[C@H](C)C[C@@H]1N(C)C [Example 21, 2′-O-{3-[(Ethyloxyacetyl)amino]propyl}-9-deoxo-9a-methyl-9a-aza-9a-homoerythromycin A] | – | – | > 40% | statistically significantly reduced | > 50% | > 50%
CC[C@H]1OC(=O)[C@H](C)[C@@H](O[C@H]2C[C@@](C)(OC)[C@@H](O)[C@H](C)O2)[C@H](C)[C@@H](O[C@@H]2O[C@H](C)C[C@H](N(C)C)[C@H]2OCCCNC(=O)C2CCOCC2)[C@](C)(O)C[C@@H](C)CN(C)[C@H](C)[C@@H](O)[C@]1(C)O [Example 25, 2′-1-{3-[(Tetrahydro-2H-pyran-4-ylcarbonyl)amino]propyl}-9-deoxo-9a-methyl-9a-aza-9a-homoerythromycin A] | – | – | > 40% | – | > 50% | > 50%
